# According to patent publication US5817670A, “Naphthyridine derivatives and pharmaceutical compositions thereof” (Yamanouchi Pharmaceutical Co., Ltd., priority 1994, dated 1998):
# Where a name gives a salt, the structure may show the parent alone.
# Target: T1, type V phosphodiesterase (Homo sapiens, UniProt O76074)
# T1 construct: from tissue; host or cells: human peripheral blood granulocyte fraction, soluble, Q Sepharose
# Experiment: Phosphodiesterase inhibition activity (in vitro), Type V
# Type: biochemical, human (peripheral blood of a healthy person)
# Settings: 1 μM cGMP
# Source text: (A) In order to evaluate selectivity of the compounds of the present invention for type IV phosphodiesterase, types I, II, III and V phosphodiesterase isozymes were purified in the following manner.
# 2) Solutions containing various phosphodiesterase isozymes were obtained from the thus obtained soluble fraction in the following manner. The thus, obtained soluble fraction was applied to a column of 1.6×10.0 cm packed with Q Sepharose which had been equilibrated with buffer A. Next, said column was washed with 300 ml of buffer A to remove non-absorbed protein. Phosphodiesterase was eluted with 200 ml of buffer A having 0.05 to 1.25M linear gradient of sodium acetate to collect about 40 fractions each containing 5.0 ml eluate. Each fraction was checked for cAMP- and cGMP-metabolizing phosphodiesterase activities. Of these fractions, a fraction having only cAMP-metabolizing activity and showing disappearance of the metabolizing activity by 0.1 μM cilostamide (a type III phosphodiesterase selective inhibitor) was used as the type III phosphodiesterase. […] These fractions were separately collected to be used as phosphodiesterase (types I, II and III) stock solutions for the examination of selectivity. p1 3) A solution containing type V phosphodiesterase was prepared from peripheral blood of a healthy person in the following manner. A 200 ml portion of physiological saline supplemented with dextran (3%) was added to 500 ml of heparinized peripheral blood and incubated at 37° C. for 40 minutes to effect precipitation of erythrocytes. The supernatant fluid after precipitation of erythrocytes was recovered and centrifuged once, and the resulting precipitate was suspended in buffer B (140 mM NaCl, 5 mM KCl, 5 mm glucose and 10 mM HEPES, pH 7.4), overlaid on a solution for density gradient centrifugation use (Ficoll solution) and then centrifuged at room temperature for 40 minutes at 450×g, thereby separating monocyte fraction and granulocyte fraction. The granulocyte fraction was washed once with buffer C (140 mM NaCl, 5 mM KCl, 1 mM CaCl2, 1 mM MgCl2, 5 mM glucose and 10 mM HEPES, pH 7.4) and suspended in buffer D (20 mM Bis-Tris, 5 mM dithioerythritol, 2 mM EGTA and 50 mM sodium acetate, pH 6.5) containing a protease inhibitor (40 μM leupeptin, 5 μM pepstatin A, 20 μM aprotinin, 50 μM phenyl-methyl-sulfonyl-fluoride or 2 mM benzamidine) and then the cells were disrupted using polytron and sonicator and subjected to ultracentrifugation (4° C., 100,000×g, 60 minutes) to give a soluble fraction.
# 4) The thus obtained soluble fraction was applied to a column of 1.6×10 cm packed with Q Sepharose which had been equilibrated with buffer D. Next, the column was washed with 120 ml of buffer D to remove non-absorbed protein. Phosphodiesterase was eluted with 300 ml of buffer D having 0.05 to 1.25M linear gradient of sodium acetate to collect fractions each containing 5.0 ml eluate. Each fraction was checked for cAMP- and cGMP-metabolizing phosphodiesterase activities. Fractions having only cGMP metabolizing activity were collected to be used as the type V phosphodiesterase stock solution.
# (B) Inhibitory activities were measured using the thus obtained stock solutions of various phosphodiesterase isozymes.
# 1) A predetermined amount of each compound to be tested was subjected to 10 minutes of reaction at 30° C. in a reaction mixture containing 40 mM Tris-HCl (pH 8.0), 5 mM MgCl2, 4 mM 2-mercaptoethanol, 10 μM rolipram (a type IV phosphodiesterase selective inhibitor), 1 μM cAMP, 10 nM ^3 H-cAMP (in the case of type V phosphodiesterase, 1 μM cAMP and 10 nM ^3 H-cAMP are replaced by 1 μM cGMP and 100 nM ^3 H-cGMP) and each of the isozyme stock solutions. After completion of the reaction, the reaction mixture was boiled at 90° C. for 1 minute, ice-cooled, mixed with 1 unit of 5'-nucleotidase and then subjected to 10 minutes of reaction at 30° C., and the reaction was stopped by adding 1 ml of methanol. […]
row,IC50 [µM],Compound
1,9.7,"Cc1cc(C)c2c(-c3cccc(Cl)c3)cc(=O)n(C)c2n1 [Example 24, 4-(3-chlorophenyl)-1,5,7-trimethyl-1,8-naphthyridin-2(1H)-one]"
2,14.5,"CCc1cc(C)c2c(-c3ccccc3)cc(=O)n(CC)c2n1 [Example 40, 1,7-Diethyl-5-methyl-4-phenyl-1,8-naphthyridin-2(1H)-one]"
3,41.2,"CCn1c(=O)cc(-c2cccc(Cl)c2)c2cccnc21 [Example 15, 4-(3-Chlorophenyl)-1-ethyl-1,8-naphthyridin-2(1H)-one]"
4,19.6,"CCn1c(=O)cc(-c2ccccc2)c2c(C)cc(C)nc21 [Example 38, 1-Ethyl-5,7-dimethyl-4-phenyl-1,8-naphthyridin-2(1H)-one]"
5,87,"CCn1c(=O)cc(C2CCCCC2)c2cccnc21 [Example 46, 4-cyclohexyl-1-ethyl-1,8-naphthyridin-2(1H)-one 0.45 hydrochloride 0.25 hydrate]"
6,3.87,"CCc1cc(C)c2c(C3CCCCC3)cc(=O)n(CC)c2n1 [Example 49, 4-cyclohexyl-1,7-diethyl-5-methyl-1,8-naphthyridin-2(1H)-one]"
7,4.79,"CCc1cc(C)c2c(-c3cccc(Cl)c3)cc(=S)n(C)c2n1 [Example 43, 4-(3-chlorophenyl)-7-ethyl-1,5-dimethyl-1,8-naphthyridine-2(1H)-thione]"
8,41.6,"CCc1cc(C)c2c(-c3cccc(Cl)c3)cc(=O)n(C3CC3)c2n1 [Example 35, 4-(3-Chlorophenyl)-1-cyclopropyl-7-ethyl-5-methyl-1,8-naphthyridin-2(1H)-on]"
9,24.6,"CCn1c(=O)cc(-c2cccc(Cl)c2)c2c(C)cc(C)nc21 [Example 29, 4-(3-Chlorophenyl)-1-ethyl-5,7-dimethyl-1,8-naphthyridin-2(1H)-one]"
10,> 30,"CCc1cc(C)c2c(-c3cccc(Br)c3)cc(=O)n(CC)c2n1 [Example 31, 4-(3-bromophenyl)-1,7-diethyl-5-methyl-1,8-naphthyridin-2(1H)-one]"
11,8.39,"CCCn1c(=O)cc(-c2cccc(Br)c2)c2c(C)cc(CC)nc21 [Example 33, 4-(3-Bromophenyl)-7-ethyl-5-methyl-1-propyl-1,8-naphthyridin-2(1H)-one]"
12,8.66,"CCn1c(=O)cc(-c2cccc(Br)c2)c2c(C)cc(C)nc21 [Example 30, 4-(3-Bromophenyl)-1-ethyl-5,7-dimethyl-1,8-naphthyridin-2(1H)-one]"
13,27.3,"CCc1cc(C)c2c(-c3ccccc3)cc(=O)n(C)c2n1 [Example 26, 7-Ethyl-1,5-dimethyl-4-phenyl-1,8-naphthyridin-2(1H)-one]"
14,27.9,"CCc1cc(C)c2c(-c3cccc(Cl)c3)cc(=O)n(C)c2n1 [Example 27, 4-(3-Chlorophenyl)-7-ethyl-1,5-dimethyl-1,8-naphthyridin-2(1H)-one]"
